Data set [1] concerns bacterial biofilm communities. As to the kind of experiment: L-arginine versus D-arginine on bacterial biofilm communities. Format: cell-based. The following applies: FIG. 11. From the text: Therefore the destabilizing effects of arginine are specific to the L-form.
The next data set concerns S. gordonii biofilms. As to the kind of experiment: S. gordonii biofilm formation in saliva, Bioflux microfluidics system. Format: cell-based. As for the experimental part:
(§1) The effects of arginine-dependent dosing of S. gordonii biofilms is assessed in a modified Bioflux microfluidics system. Human saliva is collected and pooled from ≥6 different volunteers (Cuadra-Saenz et al., Microbiology. 2012; 158(Pt 7):1783-95), diluted to 25%, and additional supplements (e.g. sucrose, haemin, BHI) added as required to simulate different conditions. Note, we grow robust biofilms in even non-supplemented saliva and pooling the saliva minimizes variation in salivary components. To obtain an indication of free arginine levels in pooled saliva, arginine is measured in ≥3 different pooled saliva samples using standard techniques (Jakubovics et al., supra; Van Wuyckhuyse et al., Journal of dental research. 1995; 74(2):686-90). The 24 channels of the Bioflux system are coated with saliva, inoculated with monocultures of S. gordonii (or multi-species biofilms harvested form saliva) and biofilms are developed at 37° C. with cell free saliva. After 20 h, cells are stained with live/dead stain and visualized using a Leica SPE CLSM. Biomass and structural biofilm parameters are quantified using COMSTAT (Heydorn et al., Microbiology. 2000; 146 (Pt 10):2395-407), ImageJ (Collins, Biotechniques. 2007; 43(1 Suppl):25-30), and IMARIS software (Bitplane, Switzerland).

Data set [2] has as its system multi-species oral biofilm communities. As to the kind of experiment: Multi-species oral biofilms in static (non-flowing) microplate system, CLSM. To be noted: 500 mM, static microplate system (FIG. 6). Format: cell-based. The text has this:
Upper renderings (A1-H1) are of the x-y plane. Middle renderings (A2-H2) are of the x-z plane. Lower renderings (A3-H3) represent an angled view (x-y-z). Bars represent 50 μm.

Data set [3] concerns AI-2 production by multi-species biofilms. As to the kind of experiment: AI-2 bioluminescence assay with Vibrio harveyi BB170 on microfluidics efflux of multi-species biofilms. The format is cell-based. The following applies: fold induction of bioluminescence, increasing arginine concentrations (FIG. 10). From the text: The AI-2 data are normalized to the “control” (non-supplemented saliva).
Values were produced by first taking averages of 4 trials at each concentration and dividing them by the average for the negative control, creating an induction number. […] High AI-2 may also have a destabilizing effect on the community, which could explain or contribute to the structural changes seen in the biofilms.

The test system of another data set is saliva derived community. As to the kind of experiment: Community composition of saliva-derived biofilms by 454 pyrosequencing. The format is cell-based. As for the experimental part: Black-colored bars represent data derived from the analysis of biofilms developed in flowing non-supplemented saliva while the grey-colored bars represent data derived from the analysis of biofilms developed in 500 mM supplemented saliva. (B) Showing changes in phyla (color coding as before). (C) Showing changes in composition of genera (key is from left to right in order from bottom to top in bar; Neisseria, Granulicatella, Streptococcus, etc).
(§2) This example describes the impact of L-arginine on oral biofilms that contain species grown under conditions representative of the human oral cavity. […] Destabilization was expressed as loss of biofilm structure and change in bacterial community membership, as determined by confocal laser scanning microscopy and 454 pyrosequencing.

The subject of data set [4] is pre-formed multi-species oral biofilms.
The test system of data set [5] is multi-species oral biofilms. As to the kind of experiment: Multi-species oral biofilms developed 20 h in flowing saliva (Bioflux microfluidic system), CLSM live/dead. The format is cell-based. As for the experimental part: as §1, §2
Green signal indicates viable live cells and red signal indicates damaged/dead cells. […] Data derived from at-least 18 renderings across three experiments and standard deviations are shown in brackets. *P<0.05; **P<0.01; […]: significant differences from the CFS control.

Another data set concerns S. gordonii DL1. Nature of the data set: Fluorescent reporter plasmid (pPE1010) expression in S. gordonii DL1 biofilms on exogenous AI-2. The format is cell-based. To be noted: exogenously added AI-2 (FIG. 12B). From the text: A plasmid (See e.g., FIG. 12) was utilized to monitor expression of reporter genes in the presence of arginine or AI-2. The pPE1010 backbone described in England et al. (Proc Natl Acad Sci USA. 2004 Nov. 30; 101(48):16917-22. Epub 2004 Nov. 16) was modified to express fluorescent genes such as GFP or Mcherry in S. gordonii DL1 or other species of streptococci. Specifically, promoters from differentially regulated genes are inserted upstream of a GFP or Mcherry gene harbored on pPE1010 (or similar streptococcal plasmid shuttle vector system) to be differentially expressed (FIGS. 12A and 12B). […] The plasmid provides constitutive-producing fluorescent probes for monitoring bacteria in biofilms and reporter systems that report arginine (or AI-2) concentrations in biofilms such as those found in dental plaque biofilms.

The values below come from patent US10570401B2, “Compositions and method for destabilizing, altering, and dispersing biofilms” (priority 2013, dated 2020).

Take `N=C(N)NCCC[C@@H](N)C(=O)O` [D-arginine, reference compound]: the “disruption of bacterial biofilm communities” value in data set [1] was “does not have the same effect”.

In the case of `N=C(N)NCCC[C@H](N)C(=O)O` [L-arginine], the “extent of biofilm present” value in the data set on S. gordonii biofilms (500 mM arginine, saliva, 20 h (FIG. 3)) is given as “significantly reduce the extent of biofilm present”. For the same molecule, the “biofilm formation by S. gordonii” value in the data set on S. gordonii biofilms (high (millimolar) concentrations of arginine, dose-dependent) is “abrogate biofilm formation by S. gordonii”. In data set [2], the biofilm architecture result is recorded as “makes the biofilm more diffuse with respect to architecture”, the biofilm biomass entry is given as “reduce biofilm biomass” and the killing entry was “No substantial killing was observed”. Also, the “amount of AI-2 produced from multi-species biofilms” value in data set [3] is reported as “increases as the concentrations of arginine used to treat them increases”. For the same molecule, in the data set on saliva derived community (500 mM treated biofilms), the “proportion of Veillonella species and non-cariogenic streptococci in biofilms” value is recorded as “increased”. Besides, in the data set on saliva derived community (prolonged exposure to 500 mM (FIG. 5A)), the “bacterial diversity (operational taxonomic units, OTU)” value was “increase in bacterial diversity”. Further, the “disruption of bacterial biofilm communities” value in data set [1] is “disrupts bacterial biofilm communities”. Also, the “destabilization of pre-formed biofilms” value in data set [4] (500 mM (FIG. 8)) was “destabilizes pre-formed multi-species oral biofilms of differing developmental age”. The “penetration of CPC into biofilm” value in data set [4] (500 mM L-arginine, CPC 0.01 or 0.05% (FIG. 9)) is on record as “enhance the penetration of CPC”.

Consider `Cl.N=C(N)NCCC[C@H](N)C(=O)O` [LAHCL, L-arginine monohydrochloride], for which the “changes in pH” value in data set [5] (HCl balanced L-arginine in human saliva) is listed as “No substantial changes in pH”. The “destabilization of oral biofilms (loss of biofilm structure, change in community membership)” value in data set [5] (human saliva inoculum, 25% filter-sterilized saliva) is on record as “destabilizes oral biofilms in a concentration dependent manner”. For the same molecule, in data set [5] (only detected as a consequence of biofilm perturbation), the antimicrobial effects entry was “Very limited antimicrobial effects”.

Take autoinducer-2 [AI-2]: in the data set with S. gordonii DL1, the “reporter expression from 50S ribosomal protein (SGO_1192) promoter” value is given as “minimal differential expression” and the “reporter expression from catabolite control protein A (SGO_0773; ccpA) promoter” value is on record as “drastically different gene expression”.
